Tests used:
Botrytis cinerea = assay: Botrytis test (bean)/protective; assay type: in vivo; conditions: protective, 500 g/ha, 2 days after inoculation
Procedure: Botrytis Test (Bean)/Protective
• Solvent: 24.5 parts by weight of acetone 24.5 parts by weight of dimethylacetamide • Emulsifier: 1 part by weight of alkyl-arylpolyglycol ether
To produce a suitable preparation of active compound, 1 part by weight of active compound is mixed with the stated amounts of solvent and emulsifier, and the concentrate is diluted with water to the desired concentration.
To test for protective activity, young plants are sprayed with the preparation of active compound at the stated application rate. After the spray coating has dried on, two small pieces of agar colonized by Botrytis cinerea are placed onto each leaf. The inoculated plants are placed in a dark chamber at about 20° C. and 100% relative atmospheric humidity.
2 days after the inoculation, the size of the infested areas on the leaves is evaluated. 0% means an efficacy which corresponds to that of the control, whereas an efficacy of 100% means that no infection is observed.

Matricaria = assay: Pre-emergence test, Matricaria; assay type: in vivo; conditions: pre-emergence/greenhouse; 60 g a.i./ha; after three weeks
Procedure: (§1) • Solvent: 5 parts by weight of acetone • Emulsifier: 1 part by weight of alkylaryl polyglycol ether
(§2) To produce a suitable preparation of active compound, 1 part by weight of active compound is mixed with the stated amount of solvent, the stated amount of emulsifier is added and the concentrate is diluted with water to the desired concentration.
(§3) Seeds of the test plants are sown in normal soil. After about 24 hours, the soil is sprayed with the preparation of active compound such that the particular amounts of active compound desired are applied per unit area. The concentration of the spray liquor is chosen such that the particular amounts of active compound desired are applied in 1000 l of water/ha.
(§4) After three weeks, the degree of damage to the plants is rated in % damage in comparison to the development of the untreated control.
(§5) The figures denote: • 0% =no effect (like untreated control) • 100% =total destruction

Ustilago avenae = assay: In vitro test for the ED50 determination in microorganisms, Ustilago avenae; assay type: cell-based; conditions: 50% inhibition of fungal growth, tested at 0.1, 1, 10 and 100 ppm, 22° C., 3-5 days, photometric 620 nm
Alopecurus = assay: Post-emergence test, Alopecurus; assay type: in vivo; conditions: post-emergence/greenhouse; 250 g a.i./ha; after three weeks
Procedure: as §1, §2
as §3, with “Test plants” for “Seeds”, “a height of 5-15 cm” for “the test plants”, “are” for “are sown in normal soil. After about 24 hours, the soil is”
as §4, §5

Septoria tritici = assay: In vitro test for the ED50 determination in microorganisms, Septoria tritici; assay type: cell-based; conditions: 50% inhibition of fungal growth, tested at 0.1, 1, 10 and 100 ppm, 22° C., 3-5 days, photometric 620 nm
Pyricularia oryzae = assay type: cell-based; conditions: 50% inhibition of fungal growth, tested at 0.1, 1, 10 and 100 ppm, 22° C., 3-5 days, photometric 620 nm
Alternaria solani = assay: Alternaria test (tomato)/protective; assay type: in vivo; conditions: protective, 100 g/ha, 3 days after inoculation
Procedure: Alternaria Test (Tomato)/Protective […] To produce a suitable preparation of active compound, 1 part by weight of active compound is mixed with the stated amounts of solvent and emulsifier, and the concentrate is diluted with water to the desired concentration. To test for protective activity, young plants are sprayed with the preparation of active compound at the stated application rate. After the spray coating has dried on, the plants are inoculated with an aqueous spore suspension of Alternaria solani. The plants are then placed in an incubation cabin at about […] and 100% relative atmospheric humidity.

Digitaria = assay: Pre-emergence test, Digitaria; assay type: in vivo; conditions: pre-emergence/greenhouse; 60 g a.i./ha; after three weeks
Procedure: as §1, §2, §3, §4, §5

Setaria [1] = assay: Pre-emergence test, Setaria; assay type: in vivo; conditions: pre-emergence/greenhouse; 60 g a.i./ha; after three weeks
Procedure: as §1, §2, §3, §4, §5

Lolium = assay: Pre-emergence test, Lolium; assay type: in vivo; conditions: pre-emergence/greenhouse; 60 g a.i./ha; after three weeks
Procedure: as §1, §2, §3, §4, §5

[2] = test system: apple scab pathogen Venturia inaequalis; assay: Venturia test (apple)/protective; assay type: in vivo; conditions: protective, 100 g/ha, 10 days after inoculation
Procedure: Venturia Test (Apple)/Protective […] To produce a suitable preparation of active compound, 1 part by weight of active compound is mixed with the stated amounts of solvent and emulsifier, and the concentrate is diluted with water to the desired concentration. To test for protective activity, young plants are sprayed with the preparation of active compound at the stated application rate. After the spray coating has dried on, the plants are inoculated with an aqueous conidia suspension of the apple scab pathogen Venturia inaequalis and then remain in an incubation cabin at about 20° C. and 100% relative atmospheric humidity for 1 day. The plants are then placed in a greenhouse at about 21° C. and a relative atmospheric humidity of about 90%.

Sphaerotheca fuliginea = assay: Sphaerotheca test (cucumber)/protective; assay type: in vivo; conditions: protective, 100 g/ha, 7 days after inoculation
Procedure: Sphaerotheca Test (Cucumber)/Protective […] To produce a suitable preparation of active compound, 1 part by weight of active compound is mixed with the stated amounts of solvent and emulsifier, and the concentrate is diluted with water to the desired concentration. To test for protective activity, young plants are sprayed with the preparation of active compound at the stated application rate. After the spray coating has dried on, the plants are inoculated with an aqueous spore suspension of Sphaerotheca fuliginea. The plants are then placed in a greenhouse at about 23° C. and a relative atmospheric humidity of about 70%.

Avena fatua = assay: Post-emergence test, Avena fatua; assay type: in vivo; conditions: post-emergence/greenhouse; 250 g a.i./ha; after three weeks
Procedure: as §1, §2
as §3, with “Test plants” for “Seeds”, “a height of 5-15 cm” for “the test plants”, “are” for “are sown in normal soil. After about 24 hours, the soil is”
as §4, §5

[3] = test system: caterpillars of the armyworm (Spodoptera frugiperda); assay: Spodoptera frugiperda test; assay type: in vivo; conditions: 500 ppm, dipped cabbage leaves
Procedure: Spodoptera Frugiperda Test • Solvent: 7 parts by weight of dimethylformamide • Emulsifier: 2 parts by weight of alkylaryl polyglycol ether To produce a suitable preparation of active compound, 1 part by weight of active compound is mixed with the stated amounts of solvent and emulsifier, and the concentrate is diluted with emulsifier-containing water to the desired concentration. Cabbage leaves (Brassica oleracea) are treated by being dipped into the preparation of active compound of the desired concentration and are populated with caterpillars of the armyworm (Spodoptera frugiperda) while the leaves are still moist. After the desired period of time, the kill in % is determined. 100% means that all caterpillar larvae have been killed; 0% means that none of the caterpillar have been killed.

Wheat = assay: Pre-emergence test, Wheat; assay type: in vivo; conditions: pre-emergence/greenhouse; 60 g a.i./ha; after three weeks; crop
Procedure: as §1, §2, §3, §4, §5

Setaria [4] = assay: Post-emergence test, Setaria; assay type: in vivo; conditions: post-emergence/greenhouse; 250 g a.i./ha; after three weeks
Procedure: as §1, §2
as §3, with “Test plants” for “Seeds”, “a height of 5-15 cm” for “the test plants”, “are” for “are sown in normal soil. After about 24 hours, the soil is”
as §4, §5

Sinapis = assay: Post-emergence test, Sinapis; assay type: in vivo; conditions: post-emergence/greenhouse; 250 g a.i./ha; after three weeks
Procedure: as §1, §2
as §3, with “Test plants” for “Seeds”, “a height of 5-15 cm” for “the test plants”, “are” for “are sown in normal soil. After about 24 hours, the soil is”
as §4, §5

Soya bean = assay: Pre-emergence test, Soya bean; assay type: in vivo; conditions: pre-emergence/greenhouse; 60 g a.i./ha; after three weeks; crop
Procedure: as §1, §2, §3, §4, §5

Structure (SMILES): Cc1sc(-c2ccc(Cl)cc2)nc1C1=C(O)C2(CCCCC2)CC1=O [Example I-1-a-2]
- % efficacy (Botrytis cinerea): 92%
- % damage, Matricana (Matricaria): 95%
- ED50 value (Ustilago avenae): <0.1 ppm
- % damage, Alopecurus (Alopecurus): 90%
- ED50 value (Septoria tritici): <0.1 ppm
- ED50 value (Pyricularia oryzae): <0.1 ppm
- % efficacy (Alternaria solani): 93%
- % damage, Digitaria (Digitaria): 100%
- % damage, Setaria (Setaria [1]): 100%
- % damage, Lolium (Lolium): 100%
- % efficacy [2]: 91%
- % efficacy (Sphaerotheca fuliginea): 100%
- % damage, Avena fatua (Avena fatua): 100%
- Kill rate in % after 7 d [3]: 100%
- % damage, Wheat (Wheat): 0%
- % damage, Setaria (Setaria [4]): 100%
- % damage, Sinapis (Sinapis): 80%
- % damage, Soya bean (Soya bean): 0%

Reference: patent US7595404B2, “Thiazolyl-substituted carbocyclic 1,3-diones as pesticidal agents” (Bayer CropScience AG, priority 2001, dated 2009)
